Assay results as given in paper PMC2962730 (Journal of neurochemistry, 2010).
Changes are numbered by the printed parent chain.

What was measured:
hVAChT Y60W [1] = target: T1, hVAChT Y60W (Homo sapiens, UniProt Q16572, Y60W); assay: [3H]vesamicol saturation binding; details: pH 7.4
T1 sequence (Q16572 1-532 Y60W): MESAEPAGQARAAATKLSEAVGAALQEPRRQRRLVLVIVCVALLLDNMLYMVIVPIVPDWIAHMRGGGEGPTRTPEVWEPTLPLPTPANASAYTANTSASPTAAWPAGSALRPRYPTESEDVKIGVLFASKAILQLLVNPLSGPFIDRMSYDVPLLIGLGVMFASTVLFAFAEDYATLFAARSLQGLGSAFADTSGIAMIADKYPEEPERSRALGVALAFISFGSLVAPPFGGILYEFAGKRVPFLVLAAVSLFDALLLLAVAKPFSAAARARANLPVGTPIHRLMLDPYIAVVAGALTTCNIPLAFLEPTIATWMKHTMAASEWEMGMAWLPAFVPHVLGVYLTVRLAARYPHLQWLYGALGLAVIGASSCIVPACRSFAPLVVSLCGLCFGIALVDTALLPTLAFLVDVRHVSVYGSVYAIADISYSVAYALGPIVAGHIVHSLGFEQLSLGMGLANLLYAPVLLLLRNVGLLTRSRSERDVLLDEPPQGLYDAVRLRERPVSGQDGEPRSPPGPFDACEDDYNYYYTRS

hVAChT W325F = target: T2, hVAChT W325F (Homo sapiens, UniProt Q16572, W325F); assay: [3H]vesamicol saturation binding; details: pH 7.4
T2 sequence (Q16572 1-532 W325F): T1 sequence (Q16572 1-532 Y60W) with W60Y, W325F

hVAChT C388A = target: T3, hVAChT C388A (Homo sapiens, UniProt Q16572, C388A); assay: [3H]vesamicol saturation binding; details: pH 7.4
T3 sequence (Q16572 1-532 C388A): T1 sequence (Q16572 1-532 Y60W) with W60Y, C388A

hVAChT C391A = target: T4, hVAChT C391A (Homo sapiens, UniProt Q16572, C391A); assay: ACh equilibrium binding by competition against [3H]vesamicol
T4 sequence (Q16572 1-532 C391A): T1 sequence (Q16572 1-532 Y60W) with W60Y, C391A

VAChT C391Y = details: ref Zhu et al. (2001); cited from earlier work
hVAChT Y60W [2] = target: T1, hVAChT Y60W; assay: [3H]ACh transport; assay type: biochemical
hVAChT A321F = target: T5, hVAChT A321F (Homo sapiens, UniProt Q16572, A321F); assay: ACh equilibrium binding by competition against [3H]vesamicol
T5 sequence (Q16572 1-532 A321F): T1 sequence (Q16572 1-532 Y60W) with W60Y, A321F

Kd (hVAChT C391A) [mM]	FHA, fraction of the ACh sites that have high affinity (hVAChT C391A; C391A hVAChT, pH 7.4)	Vmax/Bmax, ACh transport normalized to Bmax (hVAChT Y60W [2]; pH 7.4) [min⁻¹]	Km (hVAChT Y60W [2]; read-out: KM, Michaelis-Menten constant for ACh transport, pH 7.4) [µM]	Kd (hVAChT A321F) [mM]	FHA, fraction of the ACh sites that have high affinity (hVAChT A321F; A321F hVAChT, pH 7.4)	Structure (SMILES)	Bmax, maximal specific [3H]vesamicol binding (VAChT expression level) (hVAChT Y60W [1]) [pmol/mg]	Bmax, maximal specific [3H]vesamicol binding (VAChT expression level) (hVAChT W325F) [pmol/mg]	Bmax, maximal specific [3H]vesamicol binding (VAChT expression level) (hVAChT C388A) [pmol/mg]	higher KM value for transport (VAChT C391Y) [fold]
–	–	–	–	–	–	O[C@@H]1CCCC[C@H]1N1CCC(c2ccccc2)CC1 (racemic) [vesamicol, ( )-trans-2-(4-phenylpiperidino)cyclohexanol]	34 ± 3	75 ± 3	59 ± 1	–
10 ± 3	0.71 ± 0.07	7.9 ± 0.8	920 ± 170	15 ± 2	0.90 ± 0.06	CC(=O)OCC[N+](C)(C)C [ACh, acetylcholine]	–	–	–	2.6
